The MIC99 is the lowest concentration that inhibits either 99% of growth or 99% of the strains tested, depending on the study.

Holding throughout (assay type): functional
The test system of experiment [1] is Staphylococcus haemolyticus. Nature of the experiment: Antibacterial activity against methicillin-resistant Staphylococcus haemolyticus after overnight incubation by micro broth dilution analysis. In general terms: Broth dilution looks for growth in wells or tubes with falling amounts of substance.
The subject of experiment [2] is Staphylococcus epidermidis. Nature of the experiment: Antibacterial activity against methicillin-resistant Staphylococcus epidermidis assessed as zone of inhibition at 20 ug/mL after 24 hrs by agar disc diffusion method. The following applies: read-out: IZ.
Experiment [3] deals with Staphylococcus epidermidis. Kind of experiment: Antibacterial activity against methicillin-resistant Staphylococcus epidermidis after overnight incubation by micro broth dilution analysis.
Experiment [4] concerns Staphylococcus haemolyticus. Nature of the experiment: Antibacterial activity against methicillin-resistant Staphylococcus haemolyticus assessed as zone of inhibition at 50 ug/mL after 24 hrs by agar disc diffusion method. The following applies: read-out: IZ. (In general: Agar diffusion results depend on both activity and mobility in agar.)
The subject of experiment [5] is Staphylococcus aureus. Kind of experiment: Antibacterial activity against methicillin-resistant Staphylococcus aureus assessed as zone of inhibition at 50 ug/mL after 24 hrs by agar disc diffusion method. Particulars: read-out: IZ.
The subject of experiment [6] is Staphylococcus epidermidis. Nature of the experiment: Antibacterial activity against methicillin-resistant Staphylococcus epidermidis assessed as zone of inhibition at 800 ng/mL after 24 hrs by agar disc diffusion method. The following applies: read-out: IZ.
Experiment [7] relates to Staphylococcus epidermidis. Nature of the experiment: Antibacterial activity against methicillin-resistant Staphylococcus epidermidis assessed as zone of inhibition at 200 ng/mL after 24 hrs by agar disc diffusion method. The following applies: read-out: IZ.
For experiment [8], the system named is Staphylococcus aureus. Kind of experiment: Antibacterial activity against methicillin-resistant Staphylococcus aureus after overnight incubation by micro broth dilution analysis.
For experiment [9], the system named is Staphylococcus epidermidis. Kind of experiment: Antibacterial activity against methicillin-resistant Staphylococcus epidermidis assessed as zone of inhibition at 400 ng/mL after 24 hrs by agar disc diffusion method. Particulars: read-out: IZ.
Experiment [10] deals with Staphylococcus aureus. Nature of the experiment: Antibacterial activity against methicillin-resistant Staphylococcus aureus assessed as zone of inhibition at 800 ng/mL after 24 hrs by agar disc diffusion method. The following applies: read-out: IZ.
Experiment [11] deals with Staphylococcus aureus. Kind of experiment: Antibacterial activity against methicillin-resistant Staphylococcus aureus assessed as zone of inhibition at 200 ng/mL after 24 hrs by agar disc diffusion method. Particulars: read-out: IZ.
The test system of experiment [12] is Staphylococcus aureus. Kind of experiment: Antibacterial activity against methicillin-resistant Staphylococcus aureus assessed as zone of inhibition at 400 ng/mL after 24 hrs by agar disc diffusion method. Particulars: read-out: IZ.

The structures appear in SMILES notation. In brackets after ≈: the same amount, converted by molar mass.

In the case of `O=S(=O)(F)/C=C/C=C/c1cccc(C(F)(F)F)c1`, the MIC99 in experiment [1] was 55 µg/mL (≈ 196 µM); in [3], 0.822 µg/mL (≈ 2.93 µM); in the experiment on Staphylococcus aureus [8], 44.1 µg/mL (≈ 157 µM). For the same molecule, the zone of inhibition at 20 µg/mL in experiment [2] was determined as 8.5 mm. Further, the zone of inhibition at 50 µg/mL in [4] was 4.5 mm; in the experiment with Staphylococcus aureus [5], 6.2 mm. Besides, the zone of inhibition at 0.8 µg/mL in [6] was 8.5 mm. For the same molecule, in experiment [7], the zone of inhibition at 0.2 µg/mL turned out to be 6.2 mm. Besides, in experiment [9], the zone of inhibition at 0.4 µg/mL is 7.1 mm.

Take `O=S(=O)(F)/C=C/c1cccc2c1sc1ccccc12`: the MIC99 in experiment [1] turned out to be 66 µg/mL (≈ 226 µM); in [3], 55 µg/mL (≈ 188 µM); against Staphylococcus aureus [8], 48.2 µg/mL (≈ 165 µM). Further, the zone of inhibition at 0.8 µg/mL in the experiment on Staphylococcus aureus [10] worked out at 4.5 mm. In experiment [2], the zone of inhibition at 20 µg/mL came to 4.1 mm. The zone of inhibition at 0.2 µg/mL in the experiment on Staphylococcus aureus [11] came to 3.5 mm. In addition, the zone of inhibition at 0.4 µg/mL in the experiment on Staphylococcus aureus [12] was 4.4 mm. In addition, the zone of inhibition at 50 µg/mL was found to be 4.5 mm in [4] and 8.1 mm in the experiment on Staphylococcus aureus [5].

Turning to `O=S(=O)(F)/C=C/c1ccc(F)cc1F`, the results for the MIC99 (in experiment [1]; in experiment [3]; in the experiment on Staphylococcus aureus [8]) were 55.1 µg/mL (≈ 248 µM), 47 µg/mL (≈ 212 µM) and 16.1 µg/mL (≈ 72.3 µM), respectively. For the same molecule, the zone of inhibition at 0.8 µg/mL in the experiment with Staphylococcus aureus [10] turned out to be 4.1 mm. Moreover, the zone of inhibition at 20 µg/mL in [2] was determined as 3.7 mm. In the experiment with Staphylococcus aureus [11], the zone of inhibition at 0.2 µg/mL was 3.1 mm. The zone of inhibition at 0.4 µg/mL with Staphylococcus aureus [12] turned out to be 3.5 mm. Also, the zone of inhibition at 50 µg/mL in experiment [4] turned out to be 3.5 mm; in the experiment with Staphylococcus aureus [5] it was 14.1 mm.

In the case of `CC(=O)c1ccccc1/C=C/S(=O)(=O)F`, the results for the MIC99 (in [1]; in [3]; against Staphylococcus aureus [8]) were 50.2 µg/mL (≈ 220 µM), 0.816 µg/mL (≈ 3.58 µM) and 16.1 µg/mL (≈ 70.7 µM), respectively. Moreover, the zone of inhibition at 0.8 µg/mL in the experiment on Staphylococcus aureus [10] was 5.4 mm; in experiment [6], 10.5 mm. Moreover, the zone of inhibition at 20 µg/mL in experiment [2] was 10.2 mm. Also, the figures for the zone of inhibition at 0.2 µg/mL (in the experiment with Staphylococcus aureus [11]; in [7]) were 3.5 mm and 3.3 mm, respectively. In addition, the zone of inhibition at 0.4 µg/mL in the experiment on Staphylococcus aureus [12] worked out at 4.1 mm; in experiment [9] it was 4.2 mm. For the same molecule, the values for the zone of inhibition at 50 µg/mL (in [4]; in the experiment with Staphylococcus aureus [5]) were 4.1 mm and 8.2 mm, respectively.

Take `O=S(=O)(F)/C=C/c1ccc(C(F)(F)F)cc1`: the MIC99 in [1] came out at 60.2 µg/mL (≈ 237 µM); in [3], 0.812 µg/mL (≈ 3.19 µM); against Staphylococcus aureus [8], 0.815 µg/mL (≈ 3.21 µM). The zone of inhibition at 0.8 µg/mL in the experiment with Staphylococcus aureus [10] amounted to 15.1 mm; in [6] it was 11.4 mm. In addition, in experiment [2], the zone of inhibition at 20 µg/mL amounted to 12.1 mm. The values for the zone of inhibition at 0.2 µg/mL (with Staphylococcus aureus [11]; in experiment [7]) were 6.2 mm and 9.1 mm, respectively. Besides, the zone of inhibition at 0.4 µg/mL (in the experiment with Staphylococcus aureus [12]; in experiment [9]) was 10.1 mm each time. For the same molecule, the zone of inhibition at 50 µg/mL in experiment [4] turned out to be 3.5 mm; in the experiment with Staphylococcus aureus [5] it was 9.1 mm.

`O=S(=O)(F)/C=C/c1ccc(O)cc1`: the MIC99 was 57.1 µg/mL (≈ 283 µM) in experiment [1], 45 µg/mL (≈ 223 µM) in experiment [3] and 16.1 µg/mL (≈ 79.4 µM) in the experiment on Staphylococcus aureus [8]. For the same molecule, the zone of inhibition at 0.8 µg/mL in the experiment with Staphylococcus aureus [10] was 5.2 mm. In [2], the zone of inhibition at 20 µg/mL is 4.5 mm. In the experiment on Staphylococcus aureus [11], the zone of inhibition at 0.2 µg/mL amounted to 3.2 mm. Also, the zone of inhibition at 0.4 µg/mL with Staphylococcus aureus [12] turned out to be 4.3 mm. The zone of inhibition at 50 µg/mL in experiment [4] stood at 3.5 mm; with Staphylococcus aureus [5], 10.2 mm.

Regarding `O=S(=O)(F)/C=C/c1cc(O)cc(O)c1`, the MIC99 stood at 49 µg/mL (≈ 225 µM) in experiment [1], 0.846 µg/mL (≈ 3.88 µM) in [3] and 17 µg/mL (≈ 78 µM) against Staphylococcus aureus [8]. Besides, the zone of inhibition at 0.8 µg/mL is 4.5 mm in the experiment with Staphylococcus aureus [10] and 6.2 mm in experiment [6]. The zone of inhibition at 20 µg/mL in experiment [2] came to 9.3 mm. For the same molecule, the zone of inhibition at 0.2 µg/mL in the experiment with Staphylococcus aureus [11] turned out to be 3.5 mm; in experiment [7], 3.1 mm. For the same molecule, the zone of inhibition at 0.4 µg/mL (with Staphylococcus aureus [12]; in experiment [9]) was 4.2 mm each time. Further, the zone of inhibition at 50 µg/mL is 4.2 mm in [4] and 12.2 mm with Staphylococcus aureus [5].

As to `O=S(=O)(F)/C=C/c1cccc(C(F)(F)F)c1`, the MIC99 in [1] amounted to 43.2 µg/mL (≈ 170 µM); in experiment [3], 40.1 µg/mL (≈ 158 µM); with Staphylococcus aureus [8], 0.836 µg/mL (≈ 3.29 µM). For the same molecule, in the experiment on Staphylococcus aureus [10], the zone of inhibition at 0.8 µg/mL is 7.7 mm. For the same molecule, in [2], the zone of inhibition at 20 µg/mL turned out to be 4.1 mm. In the experiment on Staphylococcus aureus [11], the zone of inhibition at 0.2 µg/mL came to 4.1 mm. In addition, in the experiment with Staphylococcus aureus [12], the zone of inhibition at 0.4 µg/mL came to 5.4 mm. Further, the zone of inhibition at 50 µg/mL in [4] worked out at 4.2 mm; in the experiment on Staphylococcus aureus [5] it was 10.1 mm.

Regarding `COc1cc(/C=C/C=C/S(=O)(=O)F)cc(OC)c1`, the MIC99 in [1] was 56.6 µg/mL (≈ 208 µM); in [3], 57.1 µg/mL (≈ 210 µM); in the experiment on Staphylococcus aureus [8] it was 61.1 µg/mL (≈ 225 µM). Besides, in the experiment on Staphylococcus aureus [10], the zone of inhibition at 0.8 µg/mL amounted to 8.5 mm. The zone of inhibition at 20 µg/mL in [2] was found to be 4.1 mm. Besides, the zone of inhibition at 0.2 µg/mL with Staphylococcus aureus [11] was determined as 5.2 mm. The zone of inhibition at 0.4 µg/mL in the experiment on Staphylococcus aureus [12] came to 7.1 mm. Besides, the zone of inhibition at 50 µg/mL in experiment [4] is 4.2 mm; with Staphylococcus aureus [5] it was 16.1 mm.

Consider `Cc1ccc(/C=C/S(=O)(=O)F)c(C)c1`, for which the values for the MIC99 (in [1]; in experiment [3]; in the experiment with Staphylococcus aureus [8]) were 43.3 µg/mL (≈ 202 µM), 0.813 µg/mL (≈ 3.79 µM) and 43.1 µg/mL (≈ 201 µM), respectively. Further, the zone of inhibition at 20 µg/mL in experiment [2] stood at 10.7 mm. For the same molecule, the values for the zone of inhibition at 50 µg/mL (in experiment [4]; in the experiment on Staphylococcus aureus [5]) were 3.5 mm and 6.5 mm, respectively. Also, the zone of inhibition at 0.8 µg/mL in [6] came out at 11.1 mm. Moreover, the zone of inhibition at 0.2 µg/mL in experiment [7] amounted to 2.5 mm. Further, the zone of inhibition at 0.4 µg/mL in [9] was 6.2 mm.

Source of the values: ChEMBL document CHEMBL4382233, “Discovery of novel arylethenesulfonyl fluorides as potential candidates against methicillin-resistant of Staphylococcus aureus (MRSA) for overcoming multidrug resistance of bacterial infections” (2019).
